This data set can be described thus: Retention rate of the agriculturally active ingredient after xenon light irradiation (film on glass petri dish). The class given is physicochemical. The following applies: xenon light (290 nm cutoff), 0.68 W/m^2 at 340 nm, 35° C., neat active ingredient air-dried on petri dish. As to the method:
A method for the calculation of a retention rate of the agriculturally active ingredient defined above is more specifically as follows. First, 250 mg of the agriculturally active ingredient is dissolved in 50 mL of a solvent such as acetone, which can sufficiently dissolve the agriculturally active ingredient and also has high volatility, and 1 mL of the solution is added to a glass petri dish having a diameter of 6 cm using a one-mark pipette, spread entirely over the petri dish, and then air-dried at room temperature. The petri dish is covered with a lid made of quartz glass and then set in a weathering tester (manufactured by Q-Lab Corporation under the trade name of Q-SUN Xenon Accelerated Weathering Tester, Model Xe-3) equipped with a borosilicate filter (manufactured by Q-Lab Corporation under the trade name of Daylight-BB Optical Filter) attached thereto. After irradiation with xenon light under the conditions of an intensity at 340 nm of 0.68 W/m^2 and a temperature of 35° C. (35° C. as measured by an insulated black panel thermometer) for a predetermined time, the amount of the agriculturally active ingredient remaining on the petri dish is determined by a known determination method such as high-performance liquid chromatography. […]

Structures are written as SMILES.

For the compound `CNC(=O)C(OC)c1ccccc1COc1cc(C)ccc1C` (stereo not drawn) [compound A, 2-[(2,5-dimethylphenoxy)methyl]-α-methoxy-N-methyl-benzeneacetamide], the “retention rate after irradiation with xenon light” value is, setting by setting: (8 hours) 93.1%; (56 hours) 50.3%.

(Values after US9420782B2, “Pesticidal composition in the form of aqueous emulsion” (Sumitomo Chemical Company, Limited, priority 2012, dated 2016).)
